Patent US7407966B2, “Thienopyridinone compounds and methods of treatment” (Epix Delaware, Inc., priority 2004, dated 2008)
pKi: −log10 of the molar value.

Target: 5-HT4e receptor (Homo sapiens, UniProt Q13639)
Assay: 5-HT4e receptor binding affinity assay
Conditions: binding affinity to 5-HT4e receptors
Method: Compounds of the invention synthesized above and their binding affinity to 5-HT4e receptors was determined.

5-HT4e receptor, sequence (Q13639 1-378 isoform Q13639-5): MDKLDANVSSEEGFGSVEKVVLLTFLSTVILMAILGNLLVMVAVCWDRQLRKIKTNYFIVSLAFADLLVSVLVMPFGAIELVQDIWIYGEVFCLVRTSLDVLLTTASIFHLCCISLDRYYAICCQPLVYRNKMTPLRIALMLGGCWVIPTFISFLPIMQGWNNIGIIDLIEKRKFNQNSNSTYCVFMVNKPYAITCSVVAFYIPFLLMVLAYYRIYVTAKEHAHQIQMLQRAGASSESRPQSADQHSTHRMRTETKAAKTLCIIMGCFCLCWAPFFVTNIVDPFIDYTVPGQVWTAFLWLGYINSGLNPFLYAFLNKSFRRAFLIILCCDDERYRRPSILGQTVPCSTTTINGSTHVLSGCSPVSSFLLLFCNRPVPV

pKi | SMILES
7.00 | CC(C)n1c(=O)c(C(=O)NC2CCN(CCc3ccccc3)CC2)c(O)c2ccsc21 [Example 7, 6,7-Dihydro-4-hydroxy-7-isopropyl-6-oxo-N-(1-phenethylpiperidin-4-yl)thieno[2,3-b]pyridine-5-carboxamide]
7.21 | CC(C)n1c(=O)c(C(=O)NC2CCN(CC3CC3)CC2)c(O)c2ccsc21 [Example 5, N-(1-(Cyclopropylmethyl)piperidin-4-yl)-6,7-dihydro-4-hydroxy-7-isopropyl-6-oxothieno[2,3-b]pyridine-5-carboxamide]
7.51 | CCCN1CCC(NC(=O)c2c(O)c3ccsc3n(CC)c2=O)CC1 [Example 9, 6,7-Dihydro-7-ethyl-4-hydroxy-6-oxo-N-(1-propylpiperidin-4-yl)thieno[2,3-b]pyridine-5-carboxamide]
6.66 | CC(C)CN1CCC(NC(=O)c2c(O)c3ccsc3n(C(C)C)c2=O)CC1 [Example 6, 6,7-Dihydro-4-hydroxy-N-(1-isobutylpiperidin-4-yl)-7-isopropyl-6-oxothieno[2,3-b]pyridine-5-carboxamide]
7.51 | CC(C)n1c(=O)c(C(=O)NC2CCN(CCCO)CC2)c(O)c2ccsc21 [Example 4, 6,7-Dihydro-4-hydroxy-N-(1-(3-hydroxypropyl)piperidin-4-yl)-7-isopropyl-6-oxothieno[2,3-b]pyridine-5-carboxamide]
7.00 | CCn1c(=O)c(C(=O)NC2CCN(CCCO)CC2)c(O)c2ccsc21 [Example 10, 6,7-Dihydro-7-ethyl-4-hydroxy-N-(1-(3-hydroxypropyl)piperidin-4-yl)-6-oxothieno[2,3-b]pyridine-5-carboxamide]
7.48 | CCCN1CCC(NC(=O)c2c(O)c3ccsc3n(C(C)C)c2=O)CC1 [Example 2, 6,7-Dihydro-4-hydroxy-7-isopropyl-6-oxo-N-(1-propylpiperidin-4-yl)thieno[2,3-b]pyridine-5-carboxamide]
7.33 | CCCCCN1CCC(NC(=O)c2c(O)c3ccsc3n(C(C)C)c2=O)CC1 [Example 8, 6,7-Dihydro-4-hydroxy-7-isopropyl-6-oxo-N-(1-pentylpiperidin-4-yl)thieno[2,3-b]pyridine-5-carboxamide]
7.09 | CCN1CCC(NC(=O)c2c(O)c3ccsc3n(C(C)C)c2=O)CC1 [Example 1, 6,7-Dihydro-N-(1-ethylpiperidin-4-yl)-4-hydroxy-7-isopropyl-6-oxothieno[2,3-b]pyridine-5-carboxamide]
7.33 | CCCCN1CCC(NC(=O)c2c(O)c3ccsc3n(C(C)C)c2=O)CC1 [Example 3, N-(1-Butylpiperidin-4-yl)-6,7-dihydro-4-hydroxy-7-isopropyl-6-oxothieno[2,3-b]pyridine-5-carboxamide]
